We go through four compounds from patent US20190106460A1, “BINDING INHIBITORS OF THE BETA. TRANSDUCIN REPEAT-CONTAINING PROTEIN” (priority 2011, published 2019).

Where two headings read alike, the source gives them in different places. Starred links: 1 amine or outer side, 2 acyl side, 3 side chain; linkers in the order of their positions; H or OH if unused. Non-standard residues stand in square brackets, D forms with d. Residues, ends and D or L forms follow the SMILES beside them. Phe(4-NO2) = N[C@@H](Cc1ccc([N+](=O)[O-])cc1)C(=O)O; Phe(3-F) = N[C@@H](Cc1cccc(F)c1)C(=O)O; Phe(2-F) = N[C@@H](Cc1ccccc1F)C(=O)O; Maleoyl = O=C(/C=C\C(=O)[*:2])[*:1]; Suc = O=C(CCC(=O)[*:2])[*:1]

The target in one assay is Skp2 (Homo sapiens, UniProt Q13309). Put plainly: Selectivity assay vs other E3s: Skp2. The following applies: for inhibition at 100 µM: value in brackets, read-out: % Inhibition Skp2 @ (100 μM); for inhibition at 10 µM: read-out: % Inhibition Skp2 @ 10 μM. The assay is classed as biochemical. A digest of the protocol: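 Skp2 ubiquitination was measured in master mixes of 50 mM Herpes buffer, pH 7.5, with 75 mM NaCl and 1 mM DTT, lacking Mg or ATP. Test compounds were preincubated for 30 minutes at room temperature, Mg/ATP was added for a further 60 minutes, and reactions were boiled in SDS loading buffer, resolved on 10% SDS-PAGE, blotted to nitrocellulose and probed with HRP-Streptavidin.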
Sequence of Skp2 (Q13309 whole entry, species assumed): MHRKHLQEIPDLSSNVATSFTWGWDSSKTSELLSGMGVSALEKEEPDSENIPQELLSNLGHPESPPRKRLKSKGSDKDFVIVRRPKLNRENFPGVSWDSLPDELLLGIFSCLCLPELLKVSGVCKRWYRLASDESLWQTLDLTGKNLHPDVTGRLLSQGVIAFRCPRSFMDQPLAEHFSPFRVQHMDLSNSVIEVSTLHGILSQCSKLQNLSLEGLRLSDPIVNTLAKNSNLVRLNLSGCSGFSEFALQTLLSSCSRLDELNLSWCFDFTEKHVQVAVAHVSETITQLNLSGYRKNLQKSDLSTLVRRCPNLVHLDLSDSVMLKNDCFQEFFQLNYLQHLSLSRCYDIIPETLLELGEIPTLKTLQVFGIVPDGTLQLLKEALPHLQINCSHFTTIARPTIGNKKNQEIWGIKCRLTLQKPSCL
Sequence of Skp2 (P63208 whole entry partner, species assumed): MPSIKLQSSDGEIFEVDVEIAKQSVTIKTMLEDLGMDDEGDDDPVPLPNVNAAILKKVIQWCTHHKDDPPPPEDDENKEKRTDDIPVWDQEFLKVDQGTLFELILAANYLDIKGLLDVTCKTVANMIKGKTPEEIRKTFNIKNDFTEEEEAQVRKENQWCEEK
Sequence of Skp2 (Q13616 whole entry partner, species assumed): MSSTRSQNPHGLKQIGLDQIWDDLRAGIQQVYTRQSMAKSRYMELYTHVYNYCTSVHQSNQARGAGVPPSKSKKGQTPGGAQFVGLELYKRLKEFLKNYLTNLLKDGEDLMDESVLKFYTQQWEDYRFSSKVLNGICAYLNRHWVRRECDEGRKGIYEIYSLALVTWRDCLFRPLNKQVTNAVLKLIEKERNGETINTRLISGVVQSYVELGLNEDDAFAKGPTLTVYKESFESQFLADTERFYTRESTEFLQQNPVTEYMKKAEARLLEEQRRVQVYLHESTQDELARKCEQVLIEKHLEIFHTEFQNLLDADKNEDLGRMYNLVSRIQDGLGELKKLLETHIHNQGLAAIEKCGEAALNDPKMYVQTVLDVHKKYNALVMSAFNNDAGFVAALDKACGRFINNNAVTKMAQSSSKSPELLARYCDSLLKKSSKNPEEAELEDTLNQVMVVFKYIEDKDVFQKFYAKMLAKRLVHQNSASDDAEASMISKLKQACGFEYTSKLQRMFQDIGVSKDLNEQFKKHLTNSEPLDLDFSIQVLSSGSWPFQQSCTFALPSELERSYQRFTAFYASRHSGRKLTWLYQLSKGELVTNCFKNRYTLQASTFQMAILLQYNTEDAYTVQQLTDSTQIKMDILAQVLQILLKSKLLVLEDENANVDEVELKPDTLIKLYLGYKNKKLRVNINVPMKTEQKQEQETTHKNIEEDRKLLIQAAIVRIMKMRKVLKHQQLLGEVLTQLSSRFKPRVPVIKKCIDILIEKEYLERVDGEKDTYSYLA
Sequence of Skp2 (P62877 whole entry partner, species assumed): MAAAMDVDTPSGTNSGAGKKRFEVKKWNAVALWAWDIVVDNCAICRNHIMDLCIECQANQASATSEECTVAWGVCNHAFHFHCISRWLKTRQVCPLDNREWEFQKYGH

The target in assay [1] is T1, βTrCP (Homo sapiens, UniProt Q9Y297).
T1 sequence (Q9Y297 1-605): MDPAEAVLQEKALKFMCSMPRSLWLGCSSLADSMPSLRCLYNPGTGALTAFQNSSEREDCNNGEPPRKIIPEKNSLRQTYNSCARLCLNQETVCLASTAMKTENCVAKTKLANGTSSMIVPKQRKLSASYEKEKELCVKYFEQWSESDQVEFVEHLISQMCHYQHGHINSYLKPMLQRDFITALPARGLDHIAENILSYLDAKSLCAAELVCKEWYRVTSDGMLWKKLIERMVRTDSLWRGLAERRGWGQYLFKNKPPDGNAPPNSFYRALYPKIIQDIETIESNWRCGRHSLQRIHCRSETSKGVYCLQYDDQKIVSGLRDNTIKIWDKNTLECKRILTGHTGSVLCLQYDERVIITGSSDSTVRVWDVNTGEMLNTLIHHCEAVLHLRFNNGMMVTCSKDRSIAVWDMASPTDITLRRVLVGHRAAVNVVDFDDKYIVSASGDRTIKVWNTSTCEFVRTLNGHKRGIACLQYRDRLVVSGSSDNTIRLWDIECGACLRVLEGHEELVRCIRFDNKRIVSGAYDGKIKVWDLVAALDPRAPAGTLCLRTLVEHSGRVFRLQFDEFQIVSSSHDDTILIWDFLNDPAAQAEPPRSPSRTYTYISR
Put plainly: Biotin pull down assay with biotinylated IκB peptide. Format: binding. The following applies: for Biotin Pulldown Assay 10 μM: 10 μM compound; for Biotin Pulldown Assay 100 μM: 100 μM compound.

In assay [2] the target is βTrCP (Homo sapiens, UniProt Q9Y297). In words: Fluorescence polarisation (FP) binding assay with fluorescein-tagged IκB peptide.
Target sequence in this assay (P63208 whole entry partner, one chain of several): as the sequence (P63208 whole entry partner, species assumed) above
For the next assay, the target named is βTrCP/Skp1 (Homo sapiens, UniProt Q9Y297). In words: Surface plasmon resonance (SPR), Biacore T200. Format: binding. The conditions noted are these: apparent KD averaged over both surfaces. Here is the method:
Surface Plasmon Resonance (SPR)
Experiments were carried out using the Biacore T200 SPR detection system. This system exploits the phenomenon of surface plasmon resonance (SPR) to monitor interactions between molecules. The system involves the attachment of one interacting partner to a surface (an appropriate sensor chip) while the other interacting partner is passed over it in solution. The binding of molecules to the surface generates an SPR response (measured in response units (RU)) that is proportional to the mass and amount of the biomolecule (in this case βTrCP/Skp1) bound to the chip. The relative responses obtained are dependent on the concentration of the molecule binding. At RUmaximum, the attached protein's binding sites are saturated. Binding events can be followed in real time and a range of interaction characteristics can be determined including kinetics, specificity of interactions and the concentration of specific molecules in a sample.
As βTrCP was His tagged, an NTA sensor chip was used. This sensor chip has a dextran surface matrix with immobilized nitrilotriacetic acid (NTA) which provides a means of capturing polyHis-tagged proteins through Nickel chelation. It was hoped that addition of Ni^+ would orient the protein in a specific (and hopefully active) manner as it is covalently immobilised via amine coupling. Addition of EDC:NHS (N-ethyl-N′-(3-[…])-carbodiimide:N-hydroxysuccinimide) converts carboxyl groups on the dextran sensor chip surface to succinamide esters which readily form covalent bonds with primary amines. Each chip contains four flow cells (each a separate surface) which means that compounds/peptides can be passed over different forms of βTrCP and a reference surface simultaneously. If binding to βTrCP is occurring, responses should be the same (accounting for differences in density of surface etc) on each surface.
Two different βTrCP protein complexes were immobilised on to an NTA biacore sensor chip. One included the GSTSkp1 fusion (HisβTrCP/GSTSkp1) while the other was immobilised after GST Removal by Thrombin (HisβTrCP/Skp1). To ensure that the GST moiety is completely removed from Skp1, βTrCP/GSTSkp1 was incubated with thrombin ((10units/mg protein) for at least 16 hours at room temperature in 10mMHEPES 150mMNaCl pH7.4+2 mM CaCl2. Thrombin and GST were removed from βTrCP/Skp1 by buffer exchange through a 50 KDa MWCO vivaspin concentrator.
Protein Immobilisation Procedure for NTA Chip
Ni+ (500 μM NiCl) loaded on to surface at a flow rate of 5 μl/min for 60s. EDC/NHS (activates dextran carboxylates) loaded at a flow rate of 5 μl/min for 240s. Protein ([protein]=100 nM to 1 μM) loaded at a flow rate of 10 μl/min for 180s. Strip solution (350 μM EDTA/1M NaCl) added at flow rate of 10 μl/min for 30s (to chelate excess Ni+ and remove non-covalently bound protein e.g. protein oligomers). Quench solution (ethanolamine) at flow rate of 5 μl/min for 240s (to deactivate surface molecules on the chip that have not crosslinked protein). The immobilisation buffer used was 10 mM HEPES pH 7.4, 150 mM NaCl,
GST Capture Procedure (for Immobilisation Via GSTSkp1)
EDC:NHS was injected at 5 μl/min for 4 min to activate surface for amine coupling (this converts carboxyl groups on the surface of the chip to succinamide esters that react with primary amines)
Anti-GST (60 μg/ml). was loaded at 10 μl/min for 4 min resulting in an increase in response units of 6730 (Biacore manual states it should result in ˜7000)
Ethanolamine was injected at 5 μl/min for 5 min to deactivate remaining unreacted esters at surface (quenching).
Injection of a low concentration of purified GST (from kit) was injected for 3 mins at 5 μl/min before running a regeneration cycle with glycine pH2.0 that disrupts the antibody-GST interaction. […]
(Surface plasmon resonance follows binding to a sensor surface in real time, without labels.)

In the next assay the target is FBW7/Skp1 (Homo sapiens, UniProt Q969H0). In words: Selectivity assay vs other E3s: Fbw7. The assay is classed as biochemical. The following applies: for inhibition at 100 µM: value in brackets, read-out: % Inhibition Fbw7 @ (100 μM); for inhibition at 10 µM: read-out: % Inhibition Fbw7 @ 10 μM. In short, it runs like this:
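FBW7/Skp1 E3 ubiquitination of cyclin E substrate in 50 mM HEPES pH 7.5, 75 mM NaCl, 1 mM DTT; preincubated 30 min at room temperature before Mg/ATP, then 60 min more. Products resolved by 10% SDS-PAGE and immunoblotted with anti-cyclin E.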

For the next assay, the target named is β-TrCP1/Skp1 (Homo sapiens, UniProt Q9Y297). In words: βTrCP ubiquitination assay (Ub assay). Format: biochemical. The following applies: for Ub Assay 10 μM: 10 μM compound; for Ub Assay 100 μM: 100 μM compound. In short, it runs like this: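 Compounds tested in duplicate at 10 and 100 μM in βTrCP(IκBα) and βTrCP(β-catenin) cascades with UBE1 E1, UbcH3 E2 and biotinylated ubiquitin; substrate phosphorylation done without compound, ubiquitination steps with compound. Product captured on anti-c-Myc plates and detected with SA-Ru TAG by MSD electrochemiluminescence.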
Sequence of β-TrCP1/Skp1 (P63208 2-163 partner limits assumed, one chain of several): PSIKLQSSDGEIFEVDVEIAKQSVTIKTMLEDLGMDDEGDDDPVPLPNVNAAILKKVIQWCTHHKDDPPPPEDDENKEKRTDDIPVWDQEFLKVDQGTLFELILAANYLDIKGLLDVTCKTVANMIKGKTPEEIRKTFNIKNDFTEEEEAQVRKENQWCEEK

Where [3] appears, read: Table 11, with spread, read-out: FP IC50/μM.
Setting [4] is: Tables 1, 3, 7, 8, 10 nM fluorescein-tagged IκB peptide, read-out: FP Assay IC50/μM.

Sequence of FBW7/Skp1 (Q969H0 whole entry, species assumed): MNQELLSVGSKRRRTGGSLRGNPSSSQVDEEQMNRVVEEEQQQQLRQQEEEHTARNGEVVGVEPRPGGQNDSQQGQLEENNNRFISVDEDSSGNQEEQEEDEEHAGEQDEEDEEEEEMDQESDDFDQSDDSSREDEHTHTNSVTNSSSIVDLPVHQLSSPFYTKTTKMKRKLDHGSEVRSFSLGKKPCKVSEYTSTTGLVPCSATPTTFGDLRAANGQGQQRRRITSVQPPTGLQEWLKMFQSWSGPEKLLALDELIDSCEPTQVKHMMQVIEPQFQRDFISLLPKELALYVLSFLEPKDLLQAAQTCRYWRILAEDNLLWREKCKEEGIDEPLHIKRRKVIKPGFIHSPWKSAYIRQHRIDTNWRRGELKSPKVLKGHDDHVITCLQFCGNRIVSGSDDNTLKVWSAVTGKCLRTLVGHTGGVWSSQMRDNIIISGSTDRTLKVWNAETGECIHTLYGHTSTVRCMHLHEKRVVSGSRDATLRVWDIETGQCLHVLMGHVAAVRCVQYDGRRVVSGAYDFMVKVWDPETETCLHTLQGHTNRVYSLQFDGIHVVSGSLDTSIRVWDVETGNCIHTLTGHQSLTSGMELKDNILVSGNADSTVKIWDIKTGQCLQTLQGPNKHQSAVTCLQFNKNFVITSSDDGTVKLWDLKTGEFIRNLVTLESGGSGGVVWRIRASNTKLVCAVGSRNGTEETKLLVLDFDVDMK
Sequence of FBW7/Skp1 (P63208 whole entry partner, species assumed): as the sequence (P63208 whole entry partner, species assumed) above
Sequence of FBW7/Skp1 (Q13616 whole entry partner, species assumed): as the sequence (Q13616 whole entry partner, species assumed) above
Sequence of FBW7/Skp1 (P62877 whole entry partner, species assumed): as the sequence (P62877 whole entry partner, species assumed) above
Sequence of βTrCP/Skp1 (P63208 whole entry partner, one chain of several): as the sequence (P63208 whole entry partner, species assumed) above

The term inhibition denotes the share of the control response that was lost under treatment. Turning to `NC(=O)[C@H](CCC(=O)O)NC(=O)[C@H](Cc1ccccc1)NC(=O)[C@H](Cc1ccc(O)cc1)NC(=O)CNC(=O)[C@H](CCC(=O)O)NC(=O)CCC(=O)O` [UBP007, Suc-EGYFE-NH2] (Suc-EGYFE-NH2), on Skp2, the inhibition at 100 µM was found to be 28% and the inhibition at 10 µM turned out to be 11%. Moreover, on βTrCP [1], the “Biotin Pulldown Assay 10 μM” value is on record as “no effect/” and the “Biotin Pulldown Assay 100 μM” value is reported as “inhibits”. The IC50 at βTrCP [2] (setting [3]) was 1.04 ± 0.101 µM. Also, the IC50 at βTrCP [2] (setting [4]) stood at 1 µM. Moreover, at βTrCP/Skp1, the Kd was 0.537 ± 0.117 µM. At FBW7/Skp1, the inhibition at 100 µM is 0% and the inhibition at 10 µM was found to be 0%. For the same compound, at β-TrCP1/Skp1, the “Ub Assay 10 μM” value was “reduces/” and the “Ub Assay 100 μM” value is “inhibits”.
For `COc1ccc(C[C@H](NC(=O)[C@H](Cc2ccccc2F)NC(=O)CNC(=O)[C@H](CCC(=O)O)NC(=O)CCC(=O)O)C(=O)N[C@@H](CCC(=O)O)C(N)=O)cc1` [UBP006, Suc-EGF(2F)Y(Me)E-NH2] (Suc-EG[Phe(2-F)]Y(Me)E-NH2), on Skp2, the inhibition at 100 µM was found to be 4% and the inhibition at 10 µM stood at 0%. At βTrCP [1], the “Biotin Pulldown Assay 10 μM” value is given as “no effect/” and the “Biotin Pulldown Assay 100 μM” value is on record as “reduces”. Moreover, on βTrCP [2] (setting [3]), the IC50 amounted to 3.28 ± 0.5 µM. Further, the IC50 at βTrCP [2] (setting [4]) was 3.2 µM. Also, the Kd on βTrCP/Skp1 worked out at 4.4 ± 0.82 µM. On FBW7/Skp1, the inhibition at 100 µM came to 4% and the inhibition at 10 µM was found to be 0%. Also, on β-TrCP1/Skp1, the “Ub Assay 10 μM” value is “no effect/” and the “Ub Assay 100 μM” value is recorded as “inhibits”.
`NC(=O)[C@H](CCC(=O)O)NC(=O)[C@H](Cc1ccc([N+](=O)[O-])cc1)NC(=O)[C@H](Cc1ccc(O)cc1)NC(=O)CNC(=O)[C@H](CCC(=O)O)NC(=O)CCC(=O)O` [UBP013, Suc-EGYF(4NO2)E-NH2] (Suc-EGY[Phe(4-NO2)]E-NH2): at Skp2, the inhibition at 100 µM worked out at 31% and the inhibition at 10 µM amounted to 11%. For the same compound, on βTrCP [1], the “Biotin Pulldown Assay 10 μM” value is reported as “no effect/” and the “Biotin Pulldown Assay 100 μM” value was “inhibits”. The IC50 at βTrCP [2] (setting [3]) was 2.07 ± 0.346 µM. Also, the Kd on βTrCP/Skp1 stood at 17.7 ± 5.2 µM. On FBW7/Skp1, the inhibition at 100 µM turned out to be 0% and the inhibition at 10 µM was determined as 0%. Besides, on β-TrCP1/Skp1, the “Ub Assay 10 μM” value is listed as “no effect/” and the “Ub Assay 100 μM” value was “inhibits”.
On to `NC(=O)[C@H](CCC(=O)O)NC(=O)[C@H](Cc1ccc([N+](=O)[O-])cc1)NC(=O)[C@H](Cc1cccc(F)c1)NC(=O)CNC(=O)[C@H](CCC(=O)O)NC(=O)/C=C\C(=O)O` [UBP008, Mal-EGF(3F)F(4NO2)E-NH2] (Maleoyl-EG[Phe(3-F)][Phe(4-NO2)]E-NH2), for which, at Skp2, the inhibition at 100 µM was 14% and the inhibition at 10 µM worked out at 0%. Also, on βTrCP [1], the “Biotin Pulldown Assay 10 μM” value is reported as “no effect/” and the “Biotin Pulldown Assay 100 μM” value is “inhibits”. The IC50 at βTrCP [2] (setting [3]) came to 2.17 ± 0.425 µM. Moreover, the Kd at βTrCP/Skp1 came out at 1.46 ± 0.035 µM. For the same compound, on FBW7/Skp1, the inhibition at 100 µM came out at 18% and the inhibition at 10 µM worked out at 0%. In addition, on β-TrCP1/Skp1, the “Ub Assay 10 μM” value is reported as “no effect/” and the “Ub Assay 100 μM” value is “inhibits”.
